Assay results taken from patent US6784201B2, “Benzothiepines having activity as inhibitors of ileal bile acid transport and taurocholate uptake” (G.D. Searle & Company, priority 1994, dated 2004).
pIC50: −log10 of the molar value. Like-named read-outs stand apart in the source and are kept apart here.

Molecular target: T1, human IBAT (Homo sapiens, UniProt Q12908)
T1 construct: expressed in transfected cells; host or cells: Baby hamster kidney (BHK) cells, clone H14
T1 sequence (Q12908 1-348): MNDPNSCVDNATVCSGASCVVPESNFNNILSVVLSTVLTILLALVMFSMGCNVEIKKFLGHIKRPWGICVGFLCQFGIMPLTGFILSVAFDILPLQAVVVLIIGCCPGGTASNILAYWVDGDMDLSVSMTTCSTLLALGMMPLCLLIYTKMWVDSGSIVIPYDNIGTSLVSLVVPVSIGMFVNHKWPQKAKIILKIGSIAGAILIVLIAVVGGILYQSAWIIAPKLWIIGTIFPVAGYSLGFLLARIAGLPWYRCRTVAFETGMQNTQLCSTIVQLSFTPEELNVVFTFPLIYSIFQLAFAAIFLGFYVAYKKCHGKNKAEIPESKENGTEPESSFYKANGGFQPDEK
Test: In vitro assay of IBAT-mediated uptake of [14C]-taurocholate (TC) in H14 cells
Type: cell-based
How it was run: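 BHK cells stably expressing human IBAT (H14) were incubated 2 h at 37° C with compound and 3 μM final [14C]-taurocholate in DMEM (4.5 g/L glucose) plus 0.2% fatty acid-free BSA. After cold PBS washes, cell-associated radioactivity was measured by scintillation counting.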

SMILES	pIC50 (read-out: Human TC IC50)	pIC50 (Human TC IC50)
CCCCC1(CCCC)CS(=O)(=O)c2ccc(N(C)C)cc2C(c2ccc(OCCC[N+](CC)(CC)CC)cc2)C1O (centres unmarked) [Example 1252]	4.54	
CCCCC1(CCCC)CS(=O)(=O)c2ccc(N(C)C)cc2C(c2ccc(C[n+]3ccccc3)cc2)C1O (centres unmarked) [Example 1254]	6.07	
CCCCC1(CCCC)CS(=O)(=O)c2ccc(N(C)C)cc2C(c2cccc(C[N+](C)(C)CC[N+](C)(C)C)c2)C1O (centres unmarked) [Example 1255]	6.16	
CCCCC1(CCCC)CS(=O)(=O)c2cc(Br)c(N(C)C)cc2C(c2ccccc2)C1O (centres unmarked) [Example 1257]	7.00	
CCCCC1(CCCC)CS(=O)(=O)c2ccc(N(C)C)cc2C(c2cccs2)C1O (centres unmarked) [Example 1262]	7.52	
CCCCC1(CCCC)CS(=O)(=O)c2ccc(NC(C)C)cc2C(c2ccc(F)cc2)C1O (centres unmarked) [Example 1264]	6.68	
CCCCC1(CCCC)CS(=O)(=O)c2c(NC(C)C)cccc2C(c2ccc(F)cc2)C1O (centres unmarked) [Example 1265]	6.62	
CCCCC1(CCCC)CS(=O)(=O)c2ccc(N(C)C)cc2C(c2ccc(OCCCCCCCCCC[N+](CC)(CC)CC)cc2)C1O (centres unmarked) [Example 1268]	7.46	
CCCCC1(CCCC)CS(=O)(=O)c2ccc(N(C)C)cc2C(c2cccc(OCCOCCOCC[n+]3cccc(CC(=O)O)c3)c2)C1O (centres unmarked) [Example 1272]	7.33	
CCCCC1(CCCC)CS(=O)(=O)c2ccc(N(C)C)cc2C(c2ccc(OCc3cccc(CCl)n3)c(F)c2)C1O (centres unmarked) [Example 1274]	7.55	
CCCCC1(CCCC)CS(=O)(=O)c2ccc(N(C)C)cc2C(c2ccc(OCCOCC[N+]3(C)CC[N+](C)(C)CC3)c(F)c2)C1O (centres unmarked) [Example 1275]	7.62	
CCCCCC[N+](CCCCCC)(CCCCCC)CCOCCOCCOc1cccc(C2c3cc(N(C)C)ccc3S(=O)(=O)CC(CCCC)(CCCC)C2O)c1 (centres unmarked) [Example 1279]	7.55	
CCCCC1(CCCC)CS(=O)(=O)c2ccc(N(C)C)cc2C(c2ccc(CC(=O)N(C)CN(C)C)c(F)c2)C1O (centres unmarked) [Example 1280]		6.12
CCCCC1(CCCC)CS(=O)(=O)c2ccc(N(C)C)cc2C(c2ccc(OCCCCCCI)cc2)C1O (centres unmarked) [Example 1281]	7.26	
CCCCC1(CC)CS(=O)(=O)c2ccc([N+](C)(C)C)cc2C(c2ccc(OC)c(F)c2)C1O (centres unmarked) [Example 1282]	6.77	
CCCCC1(CCCC)CS(=O)(=O)c2c(NCC)cccc2C(c2ccc(F)cc2)C1O (centres unmarked) [Example 1284]	7.96	
CCCCC1(CC)CS(=O)(=O)c2ccc(N(C)C)cc2C(c2ccccc2)C1O (centres unmarked) [Example 1285]		7.57
CCCCC1(CCCC)CS(=O)(=O)c2ccc(N(C)C)cc2C(c2cccc(OCCOCCOCC[N+]3(CCOc4ccc(Br)cc4)CCCC3)c2)C1O (centres unmarked) [Example 1288]	7.89	
CCCCC1(CCCC)CS(=O)(=O)c2ccc(N(C)C)cc2C(c2ccc(OCCC[n+]3ccccc3CCCO)c(F)c2)C1O (centres unmarked) [Example 1290]	7.77	
CCCCC1(CCCC)CS(=O)(=O)c2ccc(N(C)C)cc2C(c2cccc(OCCOCCOCC[P+](c3ccccc3)(c3ccccc3)c3ccccc3)c2)C1O (centres unmarked) [Example 1292]	7.60	
CCCCC1(CCCC)CS(=O)(=O)c2ccc(N(C)C)cc2C(c2cccc(OCCOCCOCC[N+]3(c4ccccc4)CCCCC3)c2)C1O (centres unmarked) [Example 1294]	7.96	
CCCCC1(CCCC)CS(=O)(=O)c2ccc(N(C)C)cc2C(c2ccc(OCc3cc[n+](CC(=O)OC(C)(C)C)cc3)c(F)c2)C1O (centres unmarked) [Example 1295]	7.85	
CCCCC1(CCCC)CS(=O)(=O)c2ccc(N(C)C)cc2C(c2cccc(OCCOCCOCC[n+]3ccc(C4CCC(C)CC4)cc3)c2)C1O (centres unmarked) [Example 1297]	7.54	
CCCCC1(CCCC)CS(=O)(=O)c2ccc(N(C)C)cc2C(c2cccc(OCCOCCOCC[N+](C)(C)CCC(C)CCN(C)C)c2)C1O (centres unmarked) [Example 1298]	7.74	
CCCCC1(CCCC)CS(=O)(=O)c2ccc([N+](C)(C)C)cc2C(c2cccc(OC)c2)C1O (centres unmarked) [Example 1301]	6.82	
CCCCC1(CCCC)CS(=O)(=O)c2c(O)cccc2C(c2cccc(O)c2)C1O (centres unmarked) [Example 1302]	5.85	
CCCCC1(CCCC)CS(=O)(=O)c2ccc(N(C)C)cc2C(c2ccc(OCC[N+](C)(C)C)cc2)C1O (centres unmarked) [Example 1303]	6.59	
CCCCC1(CCCC)CS(=O)(=O)c2ccc(NC(C)(C)C)cc2C(c2cccc(OC)c2)C1O (centres unmarked) [Example 1304]	6.60	

Continued by rising pIC50 (read-out: Human TC IC50), values first:

pIC50 (read-out: Human TC IC50)	SMILES	pIC50 (Human TC IC50)
6.21	CCCCC1(CCCC)CS(=O)(=O)c2ccc(N(C)C)cc2C(c2cccc3ccccc23)C1O (centres unmarked) [Example 1251]	
6.52	CCCCC1(CCCC)CS(=O)(=O)c2ccc(N(C)C)cc2C(c2ccc(OC)c(C[N+](C)(C)C)c2)C1O (centres unmarked) [Example 1253]	
6.60	CCCCC1(CCCC)CS(=O)(=O)c2c(NC)cccc2C(c2ccc(F)cc2)C1O (centres unmarked) [Example 1305]	
6.77	CCCCC1(CCCC)CS(=O)(=O)c2ccc(N(C)C)cc2C(c2ccc(CO)cc2)C1O (centres unmarked) [Example 1283]	
6.92	CCCCC1(CCCC)CS(=O)(=O)c2c(NC(C)(C)C)cccc2C(c2ccc(F)cc2)C1O (centres unmarked) [Example 1258]	
7.17	CCCCC1(CCCC)CS(=O)(=O)c2ccc(N(C)C)cc2C(c2ccc(OCCC[N+](CCCC)(CCCC)CCCC)c(F)c2)C1O (centres unmarked) [Example 1286]	
7.20	CCCCC1(CCCC)CS(=O)(=O)c2ccc(N(C)C)cc2C(c2ccc(OCCOCCOc3cccc(N(CC)CC)c3)c(F)c2)C1O (centres unmarked) [Example 1296]	
7.54	CCCCCCCCC[N+](CCCCCCCCC)(CCCCCCCCC)CCOCCOCCOc1cccc(C2c3cc(N(C)C)ccc3S(=O)(=O)CC(CCCC)(CCCC)C2O)c1 (centres unmarked) [Example 1273]	
7.54	CCCCC1(CCCC)CS(=O)(=O)c2ccc(N(C)C)cc2C(c2cccc(OCCOCCOCC[N+](CCCCCCC(C)C)(CCCCCCC(C)C)CCCCCCC(C)C)c2)C1O (centres unmarked) [Example 1276]	
7.59	CCCCC1(CCCC)CS(=O)(=O)c2ccc(N(C)C)cc2C(c2ccc(OCCCCCCCCCCI)cc2)C1O (centres unmarked) [Example 1269]	
7.59	CCCCC1(CCCC)CS(=O)(=O)c2ccc(N(C)C)cc2C(c2ccc(OCCCCBr)c(F)c2)C1O (centres unmarked) [Example 1270]	
7.59	CCCCCCCC[N+](CCCCCCCC)(CCCCCCCC)CCOCCOCCOc1cccc(C2c3cc(N(C)C)ccc3S(=O)(=O)CC(CCCC)(CCCC)C2O)c1 (centres unmarked) [Example 1289]	
7.72	CCCCC1(CCCC)CS(=O)(=O)c2ccc(N(C)C)cc2C(c2cccc(OCCOCCOCC[N+](CC)(CC)CCC(C)=O)c2)C1O (centres unmarked) [Example 1293]	
7.74	CCCCC1(CCCC)CS(=O)(=O)c2ccc(N(C)C)cc2C(c2ccc(OCCOCCN(C)CC(=O)O)c(F)c2)C1O (centres unmarked) [Example 1277]	
7.77	CCCCC[N+](CCCCC)(CCCCC)CCOCCOCCOc1cccc(C2c3cc(N(C)C)ccc3S(=O)(=O)CC(CCCC)(CCCC)C2O)c1 (centres unmarked) [Example 1278]	
7.89	CCCCC1(CCCC)CS(=O)(=O)c2ccc(N(C)C)cc2C(c2ccc(OCc3cccc[n+]3C)c(F)c2)C1O (centres unmarked) [Example 1291]	
7.92	CCCCC1(CC)CS(=O)(=O)c2ccc(N(C)C)cc2C(c2cccc(O)c2)C1O (centres unmarked) [Example 1260]	
7.96	CCCCC1(CCCC)CS(=O)(=O)c2ccc(N(C)C)cc2C(c2cccc([N+](=O)[O-])c2)C1O (centres unmarked) [Example 1256]	
7.96	CCCCC1(CCCC)CS(=O)(=O)c2ccc(N(C)C)cc2C(c2cccc(OCCOCCOCC[N+](C)(C)CCN(CC)S(=O)(=O)c3ccccc3)c2)C1O (centres unmarked) [Example 1271]	
